According to ChEMBL document CHEMBL1129799, “Homology modeling of metabotropic glutamate receptors. (mGluRs) structural motifs affecting binding modes and pharmacological profile of mGluR1 agonists and competitive antagonists” (J Med Chem, 1996):

target: T1, Metabotropic glutamate receptor 1 (Homo sapiens, UniProt Q13255); assay: Effective concentration for half maximal stimulation of PI hydrolysis (mGluR1a)
T1 sequence (Q13255 whole entry): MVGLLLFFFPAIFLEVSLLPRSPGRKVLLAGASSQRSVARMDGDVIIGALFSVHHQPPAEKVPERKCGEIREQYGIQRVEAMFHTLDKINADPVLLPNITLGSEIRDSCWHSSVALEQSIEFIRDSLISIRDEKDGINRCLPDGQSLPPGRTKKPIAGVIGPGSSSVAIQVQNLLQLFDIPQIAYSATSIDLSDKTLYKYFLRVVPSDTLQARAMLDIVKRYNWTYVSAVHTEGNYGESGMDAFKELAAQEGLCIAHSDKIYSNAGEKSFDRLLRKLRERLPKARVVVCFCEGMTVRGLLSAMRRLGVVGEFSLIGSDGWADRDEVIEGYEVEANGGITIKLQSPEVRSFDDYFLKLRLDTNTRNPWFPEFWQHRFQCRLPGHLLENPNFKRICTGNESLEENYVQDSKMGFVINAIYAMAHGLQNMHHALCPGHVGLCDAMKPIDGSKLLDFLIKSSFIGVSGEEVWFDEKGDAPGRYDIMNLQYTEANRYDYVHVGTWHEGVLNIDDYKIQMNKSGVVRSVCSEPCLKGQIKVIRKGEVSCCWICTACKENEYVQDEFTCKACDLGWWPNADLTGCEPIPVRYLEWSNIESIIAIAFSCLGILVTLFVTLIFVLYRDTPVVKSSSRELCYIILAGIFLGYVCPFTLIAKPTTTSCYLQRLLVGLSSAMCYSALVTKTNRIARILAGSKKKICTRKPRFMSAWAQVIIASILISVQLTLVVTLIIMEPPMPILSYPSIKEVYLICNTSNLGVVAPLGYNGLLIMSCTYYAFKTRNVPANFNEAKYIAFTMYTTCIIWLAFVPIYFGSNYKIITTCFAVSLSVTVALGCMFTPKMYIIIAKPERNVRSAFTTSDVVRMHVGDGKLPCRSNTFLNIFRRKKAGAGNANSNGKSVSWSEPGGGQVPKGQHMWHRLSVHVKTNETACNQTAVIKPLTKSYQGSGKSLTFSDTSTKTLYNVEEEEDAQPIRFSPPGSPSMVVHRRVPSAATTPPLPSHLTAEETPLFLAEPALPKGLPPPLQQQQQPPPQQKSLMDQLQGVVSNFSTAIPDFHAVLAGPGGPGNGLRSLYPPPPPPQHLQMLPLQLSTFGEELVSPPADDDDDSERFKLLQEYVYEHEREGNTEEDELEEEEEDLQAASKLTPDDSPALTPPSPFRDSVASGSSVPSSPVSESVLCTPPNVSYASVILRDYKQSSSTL

| SMILES | EC50 [µM] |
| --- | --- |
| N[C@H](C(=O)O)c1cccc(O)c1 | 68 |
| N[C@H](C(=O)O)c1cc(=O)[nH]o1 [IBOTENIC ACID] | 6 |

target: T1, Metabotropic glutamate receptor 1; assay: Inhibitory concentration for half maximal inhibition of PI hydrolysis (mGluR1a)

| SMILES | IC50 [µM] |
| --- | --- |
| N[C@H](C(=O)O)c1ccc(O)c(C(=O)O)c1 | 290 |
| N[C@H](C(=O)O)c1ccc(C(=O)O)c(O)c1 | 40 |

Second part, the compound after the results:

| IC50 [µM] | SMILES |
| --- | --- |
| 214 | NC1(C(=O)O)CCc2cc(C(=O)O)ccc21 (stereo unspecified) |
| 65 | N[C@H](C(=O)O)c1ccc(C(=O)O)cc1 |
